The series relates to BN Rats. Description: Incidence of skin rash in BN rats, time course study. It is filed as in vivo. The method, then:
The protocol was modeled after that published previously (Shenton et al, Chem. Res. Toxicol. 2005, 18, 1799-1813, and Popovic et al, Chem. Res. Toxicol. 2006, 19, 1205-1214). After a 1-week acclimation period, the rats (n=3 per group) were either treated with the suspension vehicle (1% Tween® 20), or Nevirapine (NVP) (150 mg/kg/day) in suspension, or compounds of Formula I (dNVP) (150 mg/kg) in suspension. Animals were monitored for development of skin rash, and body weight. At the endpoint of the experiment, rats were humanely euthanized using carbon dioxide and exsanguinations.
At day 18, all animals in all three groups were euthanized as the experiment was deemed to have reached its ethical endpoint where no additional dosing was considered appropriate.

In the case of `Cc1ccnc2c1NC(=O)c1cccnc1N2C1CC1` [NVP, 11-Cyclopropyl-5,11-dihydro-4-methyl-6H-dipyrido[3,2,-b:2′,3′-e][1,4]-diazepin-2-one], for the setting “150 mg/kg/day in suspension, at approximately the two-week point”, the “other visible signs (ears, eyes, feet, tail)” value is “distinctly red ears, edematous eyes, purple feet, and a mottled tail”. In addition, the “behaviour / general health after dosing” value (150 mg/kg/day in suspension, over entire course of the experiment (to day 18)) is “inactivity and a lack of responsiveness for about three hours after each dosing”. Besides, the “overall toxicity, NVP compared with compounds of Formula I” value (150 mg/kg/day in suspension, under controlled conditions) is listed as “substantially more toxic than compounds of Formula I”. Moreover, the “development of skin lesions (skin rash)” value (n=3 per group, 150 mg/kg/day in suspension (1% Tween 20), observed to day 18) was “all NVP-treated animals displayed lesions, particularly around the dorsal area of the neck”.

The values are drawn from patent publication US20080241289A1, “PREPARATION AND UTILITY OF NON-NUCLEOSIDE REVERSE TRANSCRIPTASE INHIBITORS” (AUSPEX PHARMACEUTICALS, INC., priority 2007, published 2008).
